Test results taken from patent US20050109704A1, “Potable water delivery system with disinfection and residual discharge unit and method” (Pure H2O Bio-Technologies, Inc., priority 2003, published 2005).
Where “and” joins values, the source holds several entries; their conditions need not be identical. Identical values can stand only once.

How the values were obtained:
[1] = test system: Escherichia coli, Pseudomonas aeruginosa and, Enterococcus faecalis; test: Iodine disinfection of bacteria, summary by CT value; type: cell-based; conditions: CT values of 50 (ppm x min)
From the text: (§1) At CT values of 50, the Log 10 reductions were greater than 8.0. CT is a common measurement unit referring to concentration in parts per million multiplied by time (in minutes). CFU is known as colony forming units per milliliter. […] See references: Block, S. S., 1977. Disinfection, Sterilization and Preservation. Lea & Febiger, Philadelphia. 2nd edition.

E. coli = test: Iodine Disinfection of E. coli; type: cell-based, Escherichia coli; conditions: ambient (˜23° C.); for Raw counts, Average / Raw counts, Treated Rep.: undiluted/10 mL analyzed
From the text: as §1

P. aeruginosa = test: Iodine Disinfection of P. aeruginosa; type: cell-based, Pseudomonas aeruginosa; conditions: ambient (˜23° C.); for Raw counts, Average / Raw counts, Treated Rep.: undiluted/10 mL analyzed
From the text: as §1

[2] = test system: waterborne microbial contamination; conditions: 3-4 ppm for 12 min at 24° C. (CT value of about 48); cited from earlier work
E. faecalis = test: Iodine Disinfection of E. faecalis; type: cell-based, Enterococcus faecalis; conditions: ambient (˜23° C.)
From the text: as §1

[3] = 5 mg/L 5 min, undiluted/10 mL analyzed
[4] = 5 mg/L 10 min, undiluted/10 mL analyzed
[5] = 15 mg/L 5 min, undiluted/10 mL analyzed

With II the “Log 10 reductions” value [1] was “greater than 8.0 Log 10”, the Log10/mL (E. coli; 5 mg/L 5 min) was 1.2 Log10/mL and the Log10 removal (E. coli; 5 mg/L 5 min) was 5.7 Log10. For the same compound, the “cfu/mL, Average” value (E. coli; 5 mg/L 5 min) was 1.7 × 10^1 cfu/mL, the “Raw counts, Average” value (E. coli; 5 mg/L 5 min) was 175 and the “Raw counts, Treated Rep.” value (E. coli; 5 mg/L 5 min) was 171 and 168 and 185. The Log10/mL (E. coli; 5 mg/L 10 min) was <−1.0 Log10/mL, the Log10 removal (E. coli; 5 mg/L 10 min) was >8.0 Log10 and the “cfu/mL, Average” value (E. coli; 5 mg/L 10 min) was <0.1 cfu/mL. For the same compound, the “Raw counts, Average” value (E. coli; 5 mg/L 10 min) was 0, the “Raw counts, Treated Rep.” value (E. coli; 5 mg/L 10 min) was 0 and the Log10/mL (E. coli; 5 mg/L 15 min) was <−1.0 Log10/mL. For the same compound, the Log10 removal (E. coli; 5 mg/L 15 min) was >8.0 Log10, the “cfu/mL, Average” value (E. coli; 5 mg/L 15 min) was <0.1 cfu/mL and the “Raw counts, Average” value (E. coli; 5 mg/L 15 min) was 0. For the same compound, the “Raw counts, Treated Rep.” value (E. coli; 5 mg/L 15 min) was 0, the Log10/mL (E. coli; 15 mg/L 5 min) was <−1.0 Log10/mL and the Log10 removal (E. coli; 15 mg/L 5 min) was >8.0 Log10. For the same compound, the “cfu/mL, Average” value (E. coli; 15 mg/L 5 min) was <0.1 cfu/mL, the “Raw counts, Average” value (E. coli; 15 mg/L 5 min) was 0 and the “Raw counts, Treated Rep.” value (E. coli; 15 mg/L 5 min) was 0. For the same compound, the Log10/mL (P. aeruginosa; 5 mg/L 5 min) was 1.2 Log10/mL, the Log10 removal (P. aeruginosa; 5 mg/L 5 min) was 5.7 Log10 and the “cfu/mL, Average” value (P. aeruginosa; 5 mg/L 5 min) was 1.7 × 10^1 cfu/mL. For the same compound, the “Raw counts, Average” value (P. aeruginosa; 5 mg/L 5 min) was 175, the “Raw counts, Treated Rep.” value (P. aeruginosa; 5 mg/L 5 min) was 171 and 168 and 185 and the Log10/mL (P. aeruginosa; 5 mg/L 10 min) was <−1.0 Log10/mL. For the same compound, the Log10 removal (P. aeruginosa; 5 mg/L 10 min) was >7.9 Log10, the “cfu/mL, Average” value (P. aeruginosa; 5 mg/L 10 min) was <0.1 cfu/mL and the “Raw counts, Average” value (P. aeruginosa; 5 mg/L 10 min) was 0. For the same compound, the “Raw counts, Treated Rep.” value (P. aeruginosa; 5 mg/L 10 min) was 0, the Log10/mL (P. aeruginosa; 5 mg/L 15 min) was <−1.0 Log10/mL and the Log10 removal (P. aeruginosa; 5 mg/L 15 min) was >7.9 Log10. For the same compound, the “cfu/mL, Average” value (P. aeruginosa; 5 mg/L 15 min) was <0.1 cfu/mL, the “Raw counts, Average” value (P. aeruginosa; 5 mg/L 15 min) was 0 and the “Raw counts, Treated Rep.” value (P. aeruginosa; 5 mg/L 15 min) was 0. For the same compound, the Log10/mL (P. aeruginosa; 15 mg/L 5 min) was <−1.0 Log10/mL, the Log10 removal (P. aeruginosa; 15 mg/L 5 min) was >7.9 Log10 and the “cfu/mL, Average” value (P. aeruginosa; 15 mg/L 5 min) was <0.1 cfu/mL. The “Raw counts, Average” value (P. aeruginosa; 15 mg/L 5 min) was 0, the “Raw counts, Treated Rep.” value (P. aeruginosa; 15 mg/L 5 min) was 0 and the “waterborne microbial contamination reduced” value [2] was ≥ 7 logs. For the same compound, the Log10/mL (E. faecalis; 5 mg/L 5 min) was 0.6 Log10/mL, the Log10 removal (E. faecalis; 5 mg/L 5 min) was 6.2 Log10 and the “cfu/mL, Average” value (E. faecalis; 5 mg/L 5 min) was 3.9 × 10^0 cfu/mL. The “Raw counts, Average” value (E. faecalis; [3]) was 39, the “Raw counts, Treated Rep.” value (E. faecalis; [3]) was 49 and 38 and 31 and the Log10/mL (E. faecalis; 5 mg/L 10 min) was <−1.0 Log10/mL. For the same compound, the Log10 removal (E. faecalis; 5 mg/L 10 min) was >7.8 Log10, the “cfu/mL, Average” value (E. faecalis; 5 mg/L 10 min) was <0.1 cfu/mL and the “Raw counts, Average” value (E. faecalis; [4]) was 0. The “Raw counts, Treated Rep.” value (E. faecalis; [4]) was 0, the Log10/mL (E. faecalis; 5 mg/L 15 min) was <−1.0 Log10/mL and the Log10 removal (E. faecalis; 5 mg/L 15 min) was >7.8 Log10. The “Raw counts, Average” value (E. faecalis; 5 mg/L 15 min) was 0, the “Raw counts, Treated Rep.” value (E. faecalis; 5 mg/L 15 min) was 0 and the “cfu/mL, Average” value (E. faecalis; 5 mg/L 15 min) was <0.1 cfu/mL. The Log10/mL (E. faecalis; 15 mg/L 5 min) was <−1.0 Log10/mL, the Log10 removal (E. faecalis; 15 mg/L 5 min) was >7.8 Log10 and the “cfu/mL, Average” value (E. faecalis; 15 mg/L 5 min) was <0.1 cfu/mL. The “Raw counts, Average” value (E. faecalis; [5]) was 0 and the “Raw counts, Treated Rep.” value (E. faecalis; [5]) was 0.
